According to PubChem BioAssay AID1745844 (Carcinogenic Potency Database (CPDB), 2022):

System: rodent lifetime carcinogenesis bioassay, tumor incidence TD50
Assay: chronic cancer bioassays in animals – CPDB, compiled studies (AID 1745844)
Conditions: rat, strain Fischer 344, in feed

Work on `Nc1c(Br)cc(Br)c2c1C(=O)c1ccccc1C2=O` yielded a TD50 (females, site: liver, lesion: hepatocholangiocarcinoma, dosed 103 weeks, study length 104 weeks) of 566 mg/kg/day, a TD50 (females, site: rectum, lesion: adenocarcinoma, dosed 103 weeks, study length 104 weeks) of 420 mg/kg/day and a TD50 (females, site: rectum, lesion: polypoid adenoma, dosed 40 weeks, study length 66 weeks) of 217 mg/kg/day. For the same compound, the TD50 (females, site: rectum, lesion: polypoid adenoma, dosed 103 weeks, study length 104 weeks) was 74 mg/kg/day, the TD50 (females, site: skin, lesion: squamous-cell papilloma, dosed 103 weeks, study length 104 weeks) was 2600 mg/kg/day and the TD50 (females, site: urinary bladder, lesion: transitional-cell carcinoma + transitional-cell papilloma + transitional epithelium, squamous-cell carcinoma + transitional ep, dosed 66 weeks, study length 66 weeks) was 2190 mg/kg/day. It also gave a TD50 (females, site: urinary bladder, lesion: transitional-cell carcinoma + transitional-cell papilloma + transitional epithelium, squamous-cell carcinoma + transitional ep, dosed 103 weeks, study length 104 weeks) of 304 mg/kg/day, a TD50 (females, site: urinary bladder, lesion: transitional-cell carcinoma, dosed 66 weeks, study length 66 weeks) of 4830 mg/kg/day and a TD50 (females, site: urinary bladder, lesion: transitional-cell carcinoma, dosed 103 weeks, study length 104 weeks) of 656 mg/kg/day. The TD50 (females, site: urinary bladder, lesion: transitional-cell papilloma, dosed 103 weeks, study length 104 weeks) was 782 mg/kg/day, the TD50 (males, site: any site (literature study), lesion: several types, types named in the paper, dosed 39 weeks, study length 66 weeks) was 123 mg/kg/day and the TD50 (males, site: any site (literature study), lesion: several types, types named in the paper, dosed 66 weeks, study length 66 weeks) was 193 mg/kg/day. It also gave a TD50 (males, site: any site (literature study), lesion: several types, types named in the paper, dosed 103 weeks, study length 104 weeks) of 130 mg/kg/day, a TD50 (males, site: colon + kidney + liver + rectum + urinary bladder, lesion: adenocarcinoma + polypoid adenoma + tubule adenoma + tubule carcinoma + hepatocholangiocarcinoma + hepatocellular adenoma + hepatoce, dosed 103 weeks, study length 104 weeks) of 54.6 mg/kg/day and a TD50 (males, site: colon + rectum, lesion: adenocarcinoma, dosed 66 weeks, study length 66 weeks) of 1870 mg/kg/day. It also gave a TD50 (males, site: colon + rectum, lesion: adenocarcinoma, dosed 103 weeks, study length 104 weeks) of 320 mg/kg/day, a TD50 (males, site: colon + rectum, lesion: polypoid adenoma, dosed 39 weeks, study length 66 weeks) of 297 mg/kg/day and a TD50 (males, site: colon + rectum, lesion: polypoid adenoma, dosed 66 weeks, study length 66 weeks) of 426 mg/kg/day. The TD50 (males, site: colon + rectum, lesion: polypoid adenoma, dosed 103 weeks, study length 104 weeks) was 64.3 mg/kg/day, the TD50 (males, site: colon, lesion: adenocarcinoma, dosed 103 weeks, study length 104 weeks) was 2010 mg/kg/day and the TD50 (males, site: colon, lesion: polypoid adenoma, dosed 103 weeks, study length 104 weeks) was 1660 mg/kg/day. The TD50 (males, site: kidney, lesion: tubule adenoma + tubule carcinoma, dosed 39 weeks, study length 66 weeks) was 239 mg/kg/day, the TD50 (males, site: kidney, lesion: tubule adenoma + tubule carcinoma, dosed 66 weeks, study length 66 weeks) was 1770 mg/kg/day and the TD50 (males, site: kidney, lesion: tubule adenoma + tubule carcinoma, dosed 103 weeks, study length 104 weeks) was 264 mg/kg/day. It also gave a TD50 (males, site: kidney, lesion: tubule adenoma, dosed 39 weeks, study length 66 weeks) of 239 mg/kg/day, a TD50 (males, site: kidney, lesion: tubule adenoma, dosed 66 weeks, study length 66 weeks) of 1770 mg/kg/day and a TD50 (males, site: kidney, lesion: tubule adenoma, dosed 103 weeks, study length 104 weeks) of 292 mg/kg/day. The TD50 (males, site: liver, lesion: hepatocellular adenoma + hepatoblastoma + hepatocellular carcinoma, dosed 39 weeks, study length 66 weeks) was 70.3 mg/kg/day, the TD50 (males, site: liver, lesion: hepatocellular adenoma + hepatoblastoma + hepatocellular carcinoma, dosed 66 weeks, study length 66 weeks) was 102 mg/kg/day and the TD50 (males, site: liver, lesion: hepatocellular adenoma + hepatoblastoma + hepatocellular carcinoma, dosed 103 weeks, study length 104 weeks) was 53.8 mg/kg/day. It also gave a TD50 (males, site: liver, lesion: hepatocellular adenoma + hepatocellular carcinoma, dosed 39 weeks, study length 66 weeks) of 70.3 mg/kg/day, a TD50 (males, site: liver, lesion: hepatocellular adenoma + hepatocellular carcinoma, dosed 66 weeks, study length 66 weeks) of 102 mg/kg/day and a TD50 (males, site: liver, lesion: hepatocellular adenoma + hepatocellular carcinoma, dosed 103 weeks, study length 104 weeks) of 53.8 mg/kg/day. It also gave a TD50 (males, site: liver, lesion: hepatocellular adenoma, dosed 39 weeks, study length 66 weeks) of 97.8 mg/kg/day, a TD50 (males, site: liver, lesion: hepatocellular adenoma, dosed 66 weeks, study length 66 weeks) of 386 mg/kg/day and a TD50 (males, site: liver, lesion: hepatocellular adenoma, dosed 103 weeks, study length 104 weeks) of 71.4 mg/kg/day. It also gave a TD50 (males, site: liver, lesion: hepatocellular carcinoma, dosed 39 weeks, study length 66 weeks) of 95.8 mg/kg/day, a TD50 (males, site: liver, lesion: hepatocellular carcinoma, dosed 66 weeks, study length 66 weeks) of 114 mg/kg/day and a TD50 (males, site: liver, lesion: hepatocellular carcinoma, dosed 103 weeks, study length 104 weeks) of 59.6 mg/kg/day. It also gave a TD50 (males, site: liver, lesion: hepatocholangiocarcinoma, dosed 39 weeks, study length 66 weeks) of 1240 mg/kg/day, a TD50 (males, site: liver, lesion: hepatocholangiocarcinoma, dosed 103 weeks, study length 104 weeks) of 1230 mg/kg/day and a TD50 (males, site: lung, lesion: alveolar/bronchiolar adenoma + alveolar/bronchiolar carcinoma, dosed 103 weeks, study length 104 weeks) of 794 mg/kg/day. It also gave a TD50 (males, site: lung, lesion: alveolar/bronchiolar adenoma, dosed 103 weeks, study length 104 weeks) of 1290 mg/kg/day, a TD50 (males, site: rectum, lesion: adenocarcinoma, dosed 103 weeks, study length 104 weeks) of 363 mg/kg/day and a TD50 (males, site: rectum, lesion: polypoid adenoma, dosed 39 weeks, study length 66 weeks) of 297 mg/kg/day. It also gave a TD50 (males, site: rectum, lesion: polypoid adenoma, dosed 66 weeks, study length 66 weeks) of 426 mg/kg/day, a TD50 (males, site: rectum, lesion: polypoid adenoma, dosed 103 weeks, study length 104 weeks) of 64.3 mg/kg/day and a TD50 (males, site: testis, lesion: interstitial-cell adenoma, bilateral + interstitial-cell adenoma, dosed 103 weeks, study length 104 weeks) of 133 mg/kg/day. For the same compound, the TD50 (males, site: urinary bladder, lesion: transitional-cell carcinoma + transitional-cell papilloma, dosed 66 weeks, study length 66 weeks) was 3640 mg/kg/day, the TD50 (males, site: urinary bladder, lesion: transitional-cell carcinoma + transitional-cell papilloma, dosed 103 weeks, study length 104 weeks) was 564 mg/kg/day and the TD50 (males, site: urinary bladder, lesion: transitional-cell carcinoma, dosed 66 weeks, study length 66 weeks) was 3640 mg/kg/day. The TD50 (males, site: urinary bladder, lesion: transitional-cell carcinoma, dosed 103 weeks, study length 104 weeks) was 1790 mg/kg/day and the TD50 (males, site: urinary bladder, lesion: transitional-cell papilloma, dosed 103 weeks, study length 104 weeks) was 846 mg/kg/day.
